Series [1] concerns genome-length HCV-RNA (KAH5 strain of genotype 1b) replication in Li23-derived KAH5RL cells. In words: KAH5RL RL assay. The series is classed as cell-based. To be noted: Hepatitis C virus, Li23, HCV strain KAH5, 72 hrs. The method, then: (§1) RSc and D7 cells were derived from the cell lines HuH-7 and Li23, respectively, were cultured as described previously, [29]. HuH-7-derived OR6 [13], AH1R [30], and 1B-4R [Ikeda et al., submitted] cells harboring genome-length HCV-RNA and HuH-7-derived polyclonal sOR [31], and RSc-JRN/35B [Ikeda et al., submitted] cells harboring an HCV subgenomic replicon were cultured with medium in the presence of G418 (0.3 mg/ml; Geneticin, Invitrogen, Carlsbad, CA) as described previously. Li23-derived ORL8 [20], ORL11 [20], 1B-4RL [Ikeda et al., submitted], and KAH5RL [Ikeda et al., submitted] cells harboring genome-length HCV-RNA were maintained with medium in the presence of G418 (0.3 mg/ml) as described previously. Li23-derived polyclonal sORL8 and sORL11 cells harboring an HCV replicon, which were established by the transfection of ORN/3-5B/QR,KE,SR RNA into the cured OL8 and OL11 cells, respectively, were also cultured with medium in the presence of G418 (0.3 mg/ml) as described previously. Cured cells, from which the HCV-RNA had been eliminated by IFN treatment, were also maintained with medium in the absence of G418 as described previously. […] Therefore, when HCV-RNA is excluded from the cells or when its level is decreased, the cells are killed in the presence of G418. […]
(§2) The SI value of each reagent was determined by dividing the CC50 value by the EC50 value.

Series [2] concerns HCV-RNA replication in ORL8 cells. Nature of the series: Combination with IFN-α and/or RBV, ORL8 RL assay. The series is classed as cell-based, hepatitis C virus. As to conditions: 72 hrs; for anti-HCV effect in combination with IFN-α: IFN-α more than 4 IU/ml. The source says: We examined the anti-HCV activity of N-89 or N-251 in combination with IFN-α using OR6 and ORL8 assay systems. […] However, such an effect was not clear in the OR6 assay (Fig. S4A). […] Therefore, we next examined the combination effect of RBV in the same way as IFN-α using an ORL8 assay. […] Therefore, we further examined the effect of N89 or N-251 in combination with both IFN-α and RBV using an ORL8 assay.
Figure 6 Synergistic anti-HCV effects of N-89 or N-251 in combination with IFN-α and/or RBV on HCV-RNA replication in ORL8 cells. […] ORL8 cells were treated with N-89 (upper panel) or N-251 (lower panel) in combination with IFN-α (A), RBV (B), or IFN-α and RBV (C) for 72 hrs and subjected to RL assay.

Series [3] concerns genome-length HCV-RNA (O strain of genotype 1b) replication in Li23-derived ORL11 cells. Nature of the series: ORL11 RL assay. The series is classed as cell-based. As to conditions: Hepatitis C virus, 72 hrs. The method, then:
as §1, §2

Series [4] deals with genome-length HCV-RNA (O strain of genotype 1b) replication in Li23-derived ORL8 cells. In words: ORL8 RL assay. Type of series: cell-based, hepatitis C virus. As to conditions: for EC50: Hepatitis C virus, Li23, HCV strain O, 72 hrs, RL assay. The method, then: RSc and D7 cells were derived from the cell lines HuH-7 and Li23, respectively, were cultured as described previously, [29]. HuH-7-derived OR6 [13], AH1R [30], and 1B-4R [Ikeda et al., submitted] cells harboring genome-length HCV-RNA and HuH-7-derived polyclonal sOR [31], and RSc-JRN/35B [Ikeda et al., submitted] cells harboring an HCV subgenomic replicon were cultured with medium in the presence of G418 (0.3 mg/ml; Geneticin, Invitrogen, Carlsbad, CA) as described previously. Li23-derived ORL8 [20], ORL11 [20], 1B-4RL [Ikeda et al., submitted], and KAH5RL [Ikeda et al., submitted] cells harboring genome-length HCV-RNA were maintained with medium in the presence of G418 (0.3 mg/ml) as described previously. Li23-derived polyclonal sORL8 and sORL11 cells harboring an HCV replicon, which were established by the transfection of ORN/3-5B/QR,KE,SR RNA into the cured OL8 and OL11 cells, respectively, were also cultured with medium in the presence of G418 (0.3 mg/ml) as described previously. […] Therefore, when HCV-RNA is excluded from the cells or when its level is decreased, the cells are killed in the presence of G418.
RL assay was performed as described previously, [24]. Briefly, the cells were plated onto 24-well plates (2×10^4 cells per well) in triplicate and then treated with each reagent at several concentrations for 72 hrs. After treatment, the cells were subjected to luciferase assay using the RL assay system (Promega, Madison, WI). The experiments were performed at least in triplicate. From the assay results, the 50% effective concentration (EC50) of each reagent was determined.
as §2

Series [5] is described as follows: WST-1 cell proliferation assay, sOR cells. To be noted: human. Type of series: cell-based. On the procedure: The WST-1 cell proliferation assay was performed as described previously. Briefly, The cells were plated onto 96-well plates (1×10^3 cells per well) in triplicate and then treated with each reagent at several concentrations for 72 hrs. After treatment, the cells were subjected to the WST-1 cell proliferation assay (Takara Bio, Otsu, Japan) according to the manufacturer’s protocol. This assay is based on the enzymatic cleavage of the tetrazolium salt WST-1 to formazan by cellular mitochondrial dehydrogenases present in viable cells. Therefore, there are […] the value of the WST-1 assay becomes zero. The experiments were performed at least in triplicate. From the assay results, the 50% cytotoxic concentration (CC50) of each reagent was determined.
A general note: Formazan colour is commonly taken as a measure of viable cells.

Series [6] has as its target T1, renilla luciferase (RL) activity (Renilla reniformis, UniProt P27652).
T1 construct: expressed in transfected cells; host or cells: OR6 (HuH-7-derived) and ORL8 (Li23-derived) cells harbouring genome-length HCV-RNA that encodes RL; cell lysate
In words: Direct effect on RL activity in cell lysate. Type of series: biochemical. An excerpt:
The genome-length HCV-RNA used in the assay systems described above contains three non-natural elements: RL, neomycin phosphotransferase, and an internal ribosomal entry site of encephalomyocarditis virus. To exclude the possibility that the anti-HCV activity of N-89 or N-251 was due to the inhibition of these three exogenous elements, we examined the anti-HCV activities of N-89 and N-251 using the authentic 9.6 kb HCV-RNA-replicating HCV-O/RLGE cells, which were developed by the introduction of in vitro synthesized HCV-O/RLGE RNA (Fig. 2A) into OR6c cured cells.
Supplementary file pone.0072519.s002.tif: Figure S2 No inhibition of RL activity by N-89 or N-251. […] N-89 or N-251 was added to the OR6 cell lysate, and then an RL assay was performed. […] N-89 or N-251 was added to the ORL8 cell lysate, and then an RL assay was performed. (TIF) Click here for additional data file.

The mark [7] stands for this setting: reagent added along with substrate to OR6 cell lysate.
The mark [8] stands for this setting: reagent added along with substrate to ORL8 cell lysate.

Where only a bound is given, the exact number is not on record here.

Data on two compounds can be found in article PMC3758303 (PLoS ONE, 2013).

T1 sequence (P27652 whole entry): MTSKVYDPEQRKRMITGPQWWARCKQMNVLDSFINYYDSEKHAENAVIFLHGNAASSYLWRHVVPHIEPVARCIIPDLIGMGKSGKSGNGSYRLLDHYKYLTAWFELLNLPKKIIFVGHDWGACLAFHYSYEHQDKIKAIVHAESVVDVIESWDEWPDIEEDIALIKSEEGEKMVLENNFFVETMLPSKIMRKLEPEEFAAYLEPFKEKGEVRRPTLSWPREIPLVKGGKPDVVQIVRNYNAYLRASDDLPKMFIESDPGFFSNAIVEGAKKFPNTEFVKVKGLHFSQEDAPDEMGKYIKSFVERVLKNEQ

For orientation: EC50 means the midpoint of the concentration-response curve. A word on the CC50: it is the concentration at which the toxic effect on the cells reaches its halfway point. Low readings indicate harm at low concentration, high ones better tolerance by the cells. Compound `C1CCCCCC2(CCCCC1)OOCCCOO2` [N-89, 1,2,6,7-Tetraoxaspiro[7.11]nonadecane] gave an EC50 in series [1] of 190 nM. In addition, in series [2], the “anti-HCV effect in combination with RBV” value is on record as “synergistic effect”; the “anti-HCV effect in combination with both IFN-α and RBV” value is recorded as “synergistically enhanced”; the “anti-HCV effect in combination with IFN-α” value was “synergistic effect”. This compound returned an EC50 in series [3] of 45 nM. The “anti-HCV activity (suppression)” value in series [4] (1 µM in ORL8 cells, without a decrease in cell viability) is above 99%. In series [4] (ORL8 assay), this compound showed an EC50 of 89 nM and an EC99 value of 1 µM. The compound also registered a CC50 at 72 h in series [5] of 1700 nM. Besides, the “direct effect on RL activity” value in series [6] (setting [7]) is reported as “No suppressive effects”. Also, the “direct effect on RL activity” value in series [6] (setting [8]) was “No suppressive effects”.

As to `OCCCCCCC1COOC2(CCCCCCCCCCC2)OOC1` [N-251, 6-(1,2,6,7-tetraoxaspiro[7.11]nonadec-4-yl)hexan-1-ol], the EC50 is 290 nM in series [1], 59 nM in series [3] and 100 nM in series [4] (ORL8 assay). Further, the “anti-HCV effect in combination with RBV” value in series [2] is on record as “synergistic effect”. Further, the “anti-HCV effect in combination with both IFN-α and RBV” value in series [2] was “synergistically enhanced”. The “anti-HCV effect in combination with IFN-α” value in series [2] was “synergistic effect”. In series [5], this compound registered a half-maximal cytotoxic concentration (CC50) at 72 h of 2200 nM. In addition, the “direct effect on RL activity” value in series [6] (setting [7]) and in series [6] (setting [8]) was “No suppressive effects” each time.
